From US11111237B2, “Bicyclic compound and use thereof” (SK BIOPHARMACEUTICALS CO., LTD., priority 2019, dated 2021)

Each compound was assayed against PRMT5-MEP50 enzyme complex (Homo sapiens (Human), UniProt O14744) (assay: PRMT5 enzyme activity in vitro assay (methylation of histone H4R3, ELISA absorbance at 450 nm)). Details: SAM, histone H4 peptide, room temperature 2 hours, 8 points from 10 μM to 0.128 nM.
Format: biochemical
Protocol: Method for Measuring Enzyme Activity
In vitro assay: PRMT5-MEP50 enzyme complex, cofactor S-adenosylmethionine (SAM) and histone H4 peptide were reacted in vitro, and methylation of arginine (H4R3)—which is the third amino acid of histone H4—was measured in order to measure the enzyme activity of PRMT5.
Reagents: PRMT5-MEP50 enzyme complex (Catalog No. 51045), blocking buffer (52100-B), histone methyltransferase reaction buffer 2 (4×HMT assay buffer 2, Catalog No. 52170), and primary antibody (primary antibody 4-3, Catalog No. 52150) were purchased from BPS Bioscience (USA). The histone H4 peptide (1-20 amino acids) was custom made by Komabiotech (Korea) and used. S-adenosylmethionine was purchased from NEB (New England Biolabs, USA, Catalog No. B9003S). Plates for coating histone H4 peptide, washing buffer and color development reagent were purchased from the following vendors: Plate (Immobilizer™-Amino Plate, NUNC, Denmark, Catalog No. 436023), carbonate-bicarbonate buffer (Sigma-Aldrich, USA, Catalog No. C3041), washing buffer (10×TBST, Biosesang, Korea, Catalog No. T2005), TMB ELISA substrate (Abcam, UK, Catalog No. ab210902), horseradish peroxidase (HRP)-conjugated antibody (Abcam, UK, Catalog No. ab6721).
Experimental procedure: The histone H4 peptide was diluted with carbonate-bicarbonate buffer and prepared to 100 μg/mL, and then dispensed onto the plate per 100 μL and reacted at 37° C. for 1 hour. PRMT5-MEP50 enzyme complex and S-adenosylmethionine were diluted with histone methyltransferase reaction buffer to prepare 5 μg/mL and 2 μM, respectively, and then 20 μL of PRMT5-MEP50 enzyme complex and 25 μL of S-adenosylmethionine were dispensed onto the plate prepared above. 5 μL of the compound diluted with 10% dimethyl sulfoxide solution was added thereto and reacted at room temperature for 2 hours (final volume=50 μL). The concentration of the compound was diluted 1:5 from 10 μM until the lowest concentration of 0.128 nM, and 8 points were used for the test. After preparing the primary antibody by diluting 1:2000 with blocking buffer, 100 μL was added to the plate and reacted at room temperature for 1 hour. After preparing horseradish peroxidase-conjugated antibody by diluting 1:10,000 with blocking buffer, 100 μL was added to the plate and reacted at room temperature for 1 hour. 100 μL of TMB substrate was added and reacted for 3 minutes at room temperature, and 100 μL of 1 N sulfuric acid was then added to terminate the reaction. Then, the absorbance at 450 nm was measured to calculate the IC50 value of the compound. (+++: 1 to 100 nM, ++: greater than 100 to 1,000 nM, +: greater than 1,000 to 10,000 nM)

PRMT5-MEP50 enzyme complex, sequence (O14744 2-637): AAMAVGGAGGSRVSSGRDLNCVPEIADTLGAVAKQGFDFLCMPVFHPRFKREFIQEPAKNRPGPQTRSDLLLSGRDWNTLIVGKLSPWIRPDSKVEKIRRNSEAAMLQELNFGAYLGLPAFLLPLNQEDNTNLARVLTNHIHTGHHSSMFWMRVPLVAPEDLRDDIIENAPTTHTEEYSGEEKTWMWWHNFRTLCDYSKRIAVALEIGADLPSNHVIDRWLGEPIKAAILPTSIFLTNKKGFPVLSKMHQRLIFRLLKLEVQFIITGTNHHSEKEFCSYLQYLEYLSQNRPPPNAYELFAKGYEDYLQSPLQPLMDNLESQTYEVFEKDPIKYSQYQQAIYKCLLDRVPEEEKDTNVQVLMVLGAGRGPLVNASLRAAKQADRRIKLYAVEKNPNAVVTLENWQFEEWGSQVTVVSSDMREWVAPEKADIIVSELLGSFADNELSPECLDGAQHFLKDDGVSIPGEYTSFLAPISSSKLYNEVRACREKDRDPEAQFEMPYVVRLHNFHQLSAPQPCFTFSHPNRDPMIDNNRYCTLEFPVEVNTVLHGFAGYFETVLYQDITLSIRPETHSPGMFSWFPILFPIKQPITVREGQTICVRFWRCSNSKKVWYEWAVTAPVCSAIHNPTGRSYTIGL
PRMT5-MEP50 enzyme complex, sequence (Q9BQA1 2-342 partner): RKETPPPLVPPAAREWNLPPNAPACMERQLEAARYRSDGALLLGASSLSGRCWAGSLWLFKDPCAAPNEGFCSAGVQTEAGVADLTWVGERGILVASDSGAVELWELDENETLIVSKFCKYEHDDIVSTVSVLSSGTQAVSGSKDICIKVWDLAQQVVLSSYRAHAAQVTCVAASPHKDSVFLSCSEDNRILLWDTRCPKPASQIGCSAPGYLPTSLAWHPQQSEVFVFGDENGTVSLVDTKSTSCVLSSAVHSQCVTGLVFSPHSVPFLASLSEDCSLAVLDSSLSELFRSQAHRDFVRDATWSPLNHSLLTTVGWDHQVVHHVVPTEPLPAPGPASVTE

Row | SMILES | IC50 [nM]
1 | O=C1c2ccc(C3=CCOCC3)cc2OCCN1C[C@H](O)CN1CCc2ccccc2C1 [Example 20, 4-[(2R)-3-(3,4-dihydro-1H-isoquinolin-2-yl)-2-hydroxy-propyl]-8-(3,6-dihydro-2H-pyran-4-yl)-2,3-dihydro-1,4-benzoxazepin-5-one] | 100 to 1000
2 | CCOc1ccc2c(c1)CCCN(C[C@H](O)CN1CCc3ccccc3C1)C2=O [Example 7, 2-[(2R)-3-(3,4-dihydro-1H-isoquinolin-2-yl)-2-hydroxy-propyl]-7-ethoxy-4,5-dihydro-3H-2-benzazepin-1-one] | 100 to 1000
3 | O=C1c2ccc(-c3cccnc3)cc2OCCN1C[C@H](O)CN1CCc2ccccc2C1 [Example 230, 4-[(2R)-3-(3,4-dihydro-1H-isoquinolin-2-yl)-2-hydroxy-propyl]-8-(3-pyridyl)-2,3-dihydro-1,4-benzoxazepin-5-one] | 1 to 100
4 | CCN1C2CCC1CC(Oc1ccc3c(c1)OCCN(C[C@H](O)CN1CCc4ccccc4C1)C3=O)C2 (stereo partly drawn) [Example 171, 4-[(2R)-3-(3,4-dihydro-1H-isoquinolin-2-yl)-2-hydroxy-propyl]-8-[(8-ethyl-8-azabicyclo[3.2.1]octan-3-yl)oxy]-2,3-dihydro-1,4-benzoxazepin-5-one] | 1 to 100
5 | CN1CC(Oc2ccc3c(c2)OCCN(C[C@H](O)CN2CCc4ccccc4C2)C3=O)C1 [Example 93, 4-[(2R)-3-(3,4-dihydro-1H-isoquinolin-2-yl)-2-hydroxy-propyl]-8-(1-methylazetidin-3-yl)oxy-2,3-dihydro-1,4-benzoxazepin-5-one] | 100 to 1000
6 | O=C1c2ccc(C#CCO)cc2OCCN1C[C@H](O)CN1CCc2ccccc2C1 [Example 223, 4-[(2R)-3-(3,4-dihydro-1H-isoquinolin-2-yl)-2-hydroxy-propyl]-8-(3-hydroxypro-1-pynyl)-2,3-dihydro-1,4-benzoxazepin-5-one] | 100 to 1000
7 | COCCN1CCC(Oc2ccc3c(c2)OCCN(C[C@H](O)CN2CCc4ccccc4C2)C3=O)CC1 [Example 243] | 1 to 100
8 | CC(c1ccc2c(c1)OCCN(C[C@H](O)CN1CCc3ccccc3C1)C2=O)N1CC2(COC2)C1 (stereo partly drawn) [Example 222, 4-[(2R)-3-(3,4-dihydro-1H-isoquinolin-2-yl)-2-hydroxy-propyl]-8-[1-(2-oxa-6-azaspiro[3.3]heptan-6-yl)ethyl]-2,3-dihydro-1,4-benzoxazepin-5-one] | 100 to 1000
9 | CC1(C)CN(C[C@H](O)CN2CCc3ccccc3C2)C(=O)c2ccc(CN3CCOCC3)nc2O1 [Example 192, 4-[(2R)-3-(3,4-dihydro-1H-isoquinolin-2-yl)-2-hydroxy-propyl]-2,2-dimethyl-8-(morpholinomethyl)-3H-pyrido[3,2-f][1,4]oxazepin-5-one] | 100 to 1000
10 | CC(=O)N1CCC(Oc2ccc3c(c2)OCCN(C[C@H](O)CN2CCc4ccccc4C2)C3=O)C1 (stereo partly drawn) [Example 80, 8-(1-acetylpyrrolidin-3-yl)oxy-4-[(2R)-3-(3,4-dihydro-1H-isoquinolin-2-yl)-2-hydroxy-propyl]-2,3-dihydro-1,4-benzoxazepin-5-one] | 100 to 1000
11 | CC(O)CN1CCC(Oc2ccc3c(c2)OCCN(C[C@H](O)CN2CCc4ccccc4C2)C3=O)CC1 (stereo partly drawn) [Example 212, 4-[(2R)-3-(3,4-dihydro-1H-isoquinolin-2-yl)-2-hydroxy-propyl]-8-[[1-(2-hydroxypropyl)-4-piperidyl]oxy]-2,3-dihydro-1,4-benzoxazepin-5-one] | 100 to 1000
12 | O=C1c2c(F)cc(CN3CCOCC3)cc2OCCN1C[C@H](O)CN1CCc2ccccc2C1 [Example 108, 4-[(2R)-3-(3,4-dihydro-1H-isoquinolin-2-yl)-2-hydroxy-propyl]-6-fluoro-8-(morpholinomethyl)-2,3-dihydro-1,4-benzoxazepin-5-one] | 1000 to 10000
13 | O=C1c2ccc(OC3CN(C4COC4)C3)cc2OCCN1C[C@H](O)CN1CCc2ccccc2C1 [Example 96, 4-[(2R)-3-(3,4-dihydro-1H-isoquinolin-2-yl)-2-hydroxy-propyl]-8-[1-(oxetan-3-ylyl)azetidin-3-yl]oxy-2,3-dihydro-1,4-benzoxazepin-5-one] | 100 to 1000

Next, values leading:

Row | IC50 [nM] | SMILES
14 | 100 to 1000 | COC1CCN(Cc2ccc3c(c2)OCCN(C[C@H](O)CN2CCc4ccccc4C2)C3=O)CC1 [Example 38, 4-[(2R)-3-(3,4-dihydro-1H-isoquinolin-2-yl)-2-hydroxy-propyl]-8-[(4-methoxy-1-piperidyl)methyl]-2,3-dihydro-1,4-benzoxazepin-5-one]
15 | 100 to 1000 | CN1CCC(Oc2ccc3c(c2)N(C)CCN(C[C@H](O)CN2CCc4ccccc4C2)C3=O)CC1 [Example 125, 4-[(2R)-3-(3,4-dihydro-1H-isoquinolin-2-yl)-2-hydroxy-propyl]-1-methyl-8-[(1-methyl-4-piperidyl)oxy]-2,3-dihydro-1,4-benzodiazepin-5-one]
16 | 100 to 1000 | CC1(C)CN(C[C@H](O)CN2CCc3ccccc3C2)C(=O)c2ccc(CN3CC4(COC4)C3)cc2O1 [Example 170, 4-[(2R)-3-(3,4-dihydro-1H-isoquinolin-2-yl)-2-hydroxy-propyl]-2,2-dimethyl-8-(2-oxa-6-azaspiro[3.3]heptan-6-ylmethyl)-3H-1,4-benzoxazepin-5-one]
17 | 100 to 1000 | O=C1c2ccc(OC(F)(F)F)cc2CCCN1CC(O)CN1CCc2ccccc2C1 (centres unmarked) [Example 4, 2-[3-(3,4-dihydro-1H-isoquinolin-2-yl)-2-hydroxy-propyl]-7-(trifluoromethoxy)-4,5-dihydro-3H-2-benzazepin-1-one]
18 | 100 to 1000 | C[C@@H]1CN(C[C@H](O)CN2CCc3ccccc3C2)C(=O)c2ccc(OC3CCN(CC(C)(C)O)CC3)cc2O1 [Example 220, (2R)-4-[(2R)-3-(3,4-dihydro-1H-isoquinolin-2-yl)-2-hydroxy-propyl]-8-[[1-(2-hydroxy-2-methyl-propyl)-4-piperidyl]oxy]-2-methyl-2,3-dihydro-1,4-benzoxazepin-5-one]
19 | 100 to 1000 | CCN(CC)C(=O)COc1ccc2c(c1)OCCN(C[C@H](O)CN1CCc3ccccc3C1)C2=O [Example 75, 2-[[4-[(2R)-3-(3,4-dihydro-1H-isoquinolin-2-yl)-2-hydroxy-propyl]-5-oxo-2,3-dihydro-1,4-benzoxazepin-8-yl]oxy]-N,N-diethyl-acetamide]
20 | 1 to 100 | O=C(c1ccc2c(c1)OCCN(C[C@H](O)CN1CCc3ccccc3C1)C2=O)C1CC1 [Example 216, 8-(cyclopropanecarbonyl)-4-[(2R)-3-(3,4-dihydro-1H-isoquinolin-2-yl)-2-hydroxy-propyl]-2,3-dihydro-1,4-benzoxazepin-5-one]
21 | 100 to 1000 | CCOCCN1CCC(Oc2ccc3c(c2)O[C@H](C)CN(C[C@H](O)CN2CCc4ccccc4C2)C3=O)CC1 [Example 240, (2R)-4-[(2R)-3-(3,4-dihydro-1H-isoquinolin-2-yl)-2-hydroxy-propyl]-8-[[1-(2-ethoxyethyl)-4-piperidyl]oxy]-2-methyl-2,3-dihydro-1,4-benzoxazepin-5-one]
22 | 100 to 1000 | O=C1CCCN1CCOc1ccc2c(c1)OCCN(C[C@H](O)CN1CCc3ccccc3C1)C2=O [Example 74, 4-[(2R)-3-(3,4-dihydro-1H-isoquinolin-2-yl)-2-hydroxy-propyl]-8-[2-(2-oxopyrrolidin-1-yl)ethoxy]-2,3-dihydro-1,4-benzoxazepin-5-one]
23 | 1 to 100 | O=C1c2ccc(CN3CCCC(O)C3)cc2OCCN1C[C@H](O)CN1CCc2ccccc2C1 (stereo partly drawn) [Example 44, 4-[(2R)-3-(3,4-dihydro-1H-isoquinolin-2-yl)-2-hydroxy-propyl]-8-[(3-hydroxy-1-piperidyl)methyl]-2,3-dihydro-1,4-benzoxazepin-5-one]
